The subject of series [1] is Neisseria gonorrhoeae. Nature of the series: Antimicrobial activity against Penicillin resistant Neisseria gonorrhoeae assessed as reduction in microbial growth by disk diffusion assay. It counts as functional.
Series [2] relates to Streptococcus pneumoniae. Nature of the series: Antimicrobial activity against Penicillin resistant Streptococcus pneumoniae assessed as reduction in microbial growth by disk diffusion assay. It counts as functional. (In general: In agar diffusion tests the substance spreads into inoculated agar from a disc or well.)
In series [3] the test system is Neisseria gonorrhoeae. Description: Antimicrobial activity against Neisseria gonorrhoeae assessed as reduction in microbial growth by disk diffusion assay. In kind it is functional.
In series [4] the test system is Malme-3M. Description: Growth inhibition of human Malme-3M cells. In kind it is functional.
Series [5] deals with Streptococcus pneumoniae. Description: Antimicrobial activity against Streptococcus pneumoniae assessed as reduction in microbial growth by disk diffusion assay. In kind it is functional.
Series [6] has as its system Bacillus subtilis. Nature of the series: Antimicrobial activity against Bacillus subtilis assessed as reduction in microbial growth by disk diffusion assay. It counts as functional.
A short description of series [7]: Cytotoxicity against human HEK293 cells assessed as cell growth inhibition. It counts as toxicity, cell-based.
Series [8] relates to HL-60. Nature of the series: Cytotoxicity against human HL-60 cells assessed as cell growth inhibition. In kind it is functional, cell-based.
Series [9] concerns A549. Nature of the series: Cytotoxicity against human A549 cells assessed as cell growth inhibition. In kind it is functional, cell-based.
For series [10], the system named is NCI-H292. Description: Antiproliferative activity against human NCI-H292 cells assessed as cell growth inhibition incubated for 4 hrs by MTT assay. It counts as functional, cell-based. To be noted: NCI-H292, 4 h. (In general: Tetrazolium dyes change colour on reduction, which living cells bring about.)
The test system of series [11] is Leishmania amazonensis. Description: Antileishmanial activity against Leishmania amazonensis promastigotes assessed as reduction on parasite growth by green fluorescent protein based microplate reader assay. In kind it is functional, organism-based.
In series [12] the test system is DU-145. Nature of the series: Cytotoxicity against human DU-145 cells assessed as cell growth inhibition incubated for 4 days by Cell counting kit-8 assay. In kind it is functional, cell-based. To be noted: DU-145, 96 h.
The subject of series [13] is QG-56. Description: Cytotoxicity against human QG-56 cells assessed as cell growth inhibition incubated for 4 days by Cell counting kit-8 assay. In kind it is functional, cell-based. As to conditions: QG-56, 96 h.
Series [14] has as its system HCT-116. Description: Cytotoxicity against human HCT-116 cells assessed as cell growth inhibition incubated for 4 days by Cell counting kit-8 assay. In kind it is functional, cell-based. As to conditions: HCT-116, 96 h.
Series [15] deals with HCT-116. Description: Cytotoxicity against human HCT-116 cells assessed as cell growth inhibition. It counts as functional, cell-based.
Series [16] has as its system QG-56. Nature of the series: Cytotoxicity against human QG-56 cells assessed as cell growth inhibition. In kind it is functional, cell-based.
Series [17] has as its system A549. Nature of the series: Cytotoxicity against human A549 cells assessed as cell growth inhibition by SRB assay. In kind it is functional, cell-based.
Series [18] has as its system HL-60. Description: Cytotoxicity against human HL-60 cells assessed as cell growth inhibition by MTT assay. In kind it is functional, cell-based.
The test system of series [19] is HCT-116. Nature of the series: Antiproliferative activity against human HCT-116 cells assessed as cell growth inhibition by MTT colorimetric assay. In kind it is functional, cell-based.
Series [20] deals with MDA-MB-435. Nature of the series: Antiproliferative activity against human MDA-MB-435 cells assessed as cell growth inhibition by MTT colorimetric assay. In kind it is functional, cell-based.

Values after ≈ are worked out from the molar mass of the structure shown. Where a name gives a salt, the structure may show the parent alone. Some results are limits rather than exact numbers.

For `C/C=C(/C)C(=O)OC[C@H]1C2=C(C=C3[C@H]4c5c(O)c(OC)c(C)c(O)c5C(=O)[C@@H](C(=O)N31)N4C)C(=O)C(C)=C(OC)C2=O` [CRIBROSTATIN 5], the MIC in [1] came to 1.56 µg; in [2], 50 µg; in series [3], 6.25 µg; in series [5] it was 6.25 µg; in series [6], 12.5 µg. Also, growth in series [4] was halved (GI50) at 390 nM.

As for `COC1=C(C)C(=O)C2=C(C1=O)[C@@H]1[C@@H]3CC4=C(C(=O)C(OC)=C(C)C4=O)[C@H](CO)N3[C@@H](CC(C)=O)[C@H](C2=O)N1C`, the results for the 50% inhibitory concentration (IC50) in series [7], in [8] and in series [9] were 1 µM, 2500 nM and 6.2 µM, respectively.

For the molecule `COC1=C(C)C(=O)C2=C(C1=O)[C@@H]1[C@@H]3CC4=C(C(=O)C(OC)=C(C)C4=O)[C@H](COC(=O)CNC(=O)OC(C)(C)C)N3[C@@H](C#N)[C@H](C2)N1C`, the IC50 (commonly the point on the concentration scale where inhibition reaches its midpoint) in series [10] was 3.56 nM.

For the molecule `C/C=C(/C)C(=O)OC[C@H]1C2=C(C[C@H]3[C@H]4C5=C(C(=O)C(C)=C(OC)C5=O)[C@H](O)[C@@H](CN13)N4C)C(=O)C(C)=C(OC)C2=O`, the half-inhibitory concentration (IC50) in [11] was found to be 0.2 µg/mL (≈ 0.353 µM).

Turning to `COC1=C(C)C(=O)C2=C(C1=O)[C@H](CO)N1[C@@H](C#N)[C@@H]3C(=O)c4c(O)c(C)c(OC)c(O)c4[C@H]([C@@H]1C2)N3C`, the IC50 in series [12], in series [13] and in [14] was 448 nM in each case.

As to `COc1cccc2c1C(=O)c1c(O)c3c(c(O)c1C2=O)C[C@@](O)(C(=O)CO)C[C@@H]3O[C@H]1C[C@H](N)[C@H](O)[C@H](C)O1` [DOXORUBICIN HYDROCHLORIDE], the half-inhibitory concentration (IC50) in series [9] came to 0.31 µM.

With `COC1=C(C)C(=O)C2=C(C1=O)[C@@H]1[C@@H]3CC4=C(C(=O)C(OC)=C(C)C4=O)[C@H](COC(C)=O)N3[C@@H](C#N)[C@H](C2)N1C` [CYANOJORUMYCIN], the concentration for half-maximal inhibition (IC50) in [15] was less than 0.38 nM; in [16], 0.68 nM.

Take `C/C=C(/C)C(=O)OC[C@H]1C2=C(C[C@H]3[C@H]4C5=C(C[C@@H]([C@H](CC(C)=O)N13)N4C)C(=O)C(C)=C(OC)C5=O)C(=O)C(C)=C(OC)C2=O`: the IC50 in series [7] was 7.1 µM; in series [17], greater than 100 µM; in series [18], greater than 100 µM.

For `CCC(=O)OC[C@H]1C2=C(C[C@H]3[C@H]4C5=C(C[C@@H]([C@H](C#N)N13)N4C)C(=O)C(C)=C(OC)C5=O)C(=O)C(C)=C(OC)C2=O` [JORUNNAMYCIN C], the IC50 in series [12] is 0.32 nM; in series [19] it was 27.3 nM; in series [13], 2.8 nM; in series [14], 1.5 nM; in series [20], 16.3 nM.

As for `COC1=C(C)C(=O)C2=C(C1=O)[C@H]1CN(Cc3ccccc3)[C@@H](C#N)[C@H](C2)N1C`, the half-inhibitory concentration (IC50) in [13] and in series [14] was 17 nM in each case.

Turning to `C/C=C(/C)C(=O)OC[C@H]1C2=C(C[C@H]3[C@H]4C5=C(C(=O)C(C)=C(OC)C5=O)[C@H](OCC)[C@@H]([C@H](CC(C)=O)N13)N4C)C(=O)C(C)=C(O)C2=O`, the IC50 in series [8] is greater than 100000 nM; in series [9] it was greater than 100 µM.

The values are drawn from ChEMBL document CHEMBL5126503, “Renieramycin-type alkaloids from marine-derived organisms: Synthetic chemistry, biological activity and structural modification” (Eur J Med Chem, 2021).
